# Assay results: paper PMC10375191, “Transformable Neuropeptide Prodrug with Tumor Microenvironment Responsiveness for Tumor Growth and Metastasis Inhibition of Triple‐Negative Breast Cancer” (Advanced Science, 2023)
# Starred links: 1 amine or outer side, 2 acyl side, 3 side chain; linkers in the order of their positions; H or OH if unused. Residues, ends and D or L forms follow the SMILES beside them. *: point of attachment. Doxorubicin(3'-N) = COc1cccc2c1C(=O)c1c(O)c3c(c(O)c1C2=O)C[C@@](O)(C(=O)CO)C[C@@H]3O[C@H]1C[C@H](N*)[C@H](O)[C@H](C)O1; Suc = O=C(CCC(=O)[*:2])[*:1]
# Experiments:
# [1] = test system: healthy ICR mice; experiment: Maximum tolerated dose / acute toxicity study
# From the text: Animal survival of each group (n = 10, 5 female and 5 male) was continuously recorded for 14 days. Eventually, the evaluation and calculation of the median lethal dose (LD50) were completed with these collected data using the Bliss rule.
# [2] = test system: MDA‐MB‐231 xenograft model; experiment: In vivo antitumor evaluation, MDA-MB-231 xenograft; set-up: species or system mouse; conditions: MDA-MB-231 tumor-bearing nude mice; DOX-P18 up to 100 mg kg^−1 (20 mg kg^−1 DOX); DOX at 10 and 20 mg kg^−1
# From the text: (§1) All the animal experimental procedures were recognized and approved by the Regional Ethics Committee for Animal Experiments at Ningbo University, China (Permit NO. SYXK (Zhe) 2019‐0005). The triple‐negative breast cancer (TNBC) xenograft tumors were established on female BALB/c nude mice (≈15 g) by subcutaneous injection of MDA‐MB‐231 cells (5 × 10^6 cells in each mouse). TNBC metastasis models were constructed by injecting MDA‐MB‐231‐luc cells (1 × 10^5 cells in each mouse) through the tail vein to female BALB/c nude mice. The day that MDA‐MB‐231‐luc was injected was set as D0. In vivo imaging system (IVIS) (Lumina XRMS Ш, PerkinElmer, USA) was utilized to identify the tumor metastasis at D12.
# When the tumor volume of BALB/c mice reached ≈70 mm^3 (V = L × W × W/2), the tumor‐bearing mice were randomly divided into seven groups (n = 5 for each group). […] 100 µL drug was injected intravenously through the tail vein every other day for a total of five times. The day that the first injection was given was set as D0. Tumor size and mouse weight were measured every 2 days from the day that treatment started until D26.
# [3] = test system: MDA‐MB‐231 metastasis model; experiment: Anti-metastasis evaluation, MDA-MB-231 metastasis model; type: in vivo, mouse; conditions: MDA-MB-231 metastasis model, DOX 5 mg kg^−1
# From the text: as §1
# For the TNBC metastasis model, two kinds of treatments were developed. […] After seven times of injections, continued observation of the mice was carried out. […] In vivo imaging system (IVIS Lumina XRMS Ш, PerkinElmer, USA) was utilized again to estimate the tumor metastasis at D26. Meanwhile, the mice were sacrificed and the main organs (heart, livers, spleen, lung, and kidney) were separated for histological analysis.
# [4] = test system: MDA‐MB‐231 cells; experiment: CCK-8 cell viability assay, MDA-MB-231; type: cell-based, human
# Procedure: (§2) MDA‐MB‐231 cells were incubated in 96‐well plates for 24 h (1 × 10^4 cells per well). […] At the appointed time, 10 µL CCK‐8 solution was dropped into each well and further co‐incubated with treated cells for 2 h. The absorbance values at 450 nm were measured by an automated plate reader (iMark (168‐1130), Biorad, USA). The IC50 values were obtained from Microsoft Excel's FORECAST formula.
# [5] = test system: MCF‐7 cells; experiment: CCK-8 cell viability assay, MCF-7; type: cell-based, human; conditions: MCF-7, 24 h
# Procedure: as §2
# breast cancer cell line MCF-7 after 24 h incubation. Data are presented as means ±
# standard deviations (n = 3).
# (§3) (1 picture or pasted object on this page, not shown here)
# [6] = test system: MCF‐10A cells; experiment: CCK-8 cell viability assay, MCF-10A; type: cell-based, human; conditions: 24 h
# Procedure: as §2
# mammary epithelial cell line MCF-10A after 24 h incubation. Data are presented as
# means ± standard deviations (n = 3).
# as §3
# [7] = Morphological transformation / particle size by DLS and TEM in PBS of different pH; type: physicochemical; conditions: TEM, PBS pH 6.5
compound,measurement,setting,value
"COc1cccc2c1C(=O)c1c(O)c3c(c(O)c1C2=O)C[C@@](O)(C(=O)CO)C[C@@H]3O[C@H]1C[C@H](N)[C@H](O)[C@H](C)O1 [DOX, doxorubicin, reference compound]",Histological analysis of major organs,"[1]; 14 days after single dose, 40 mg kg^−1 DOX (or DOX equivalent)","disordered arrangement of myofilaments, glomerulosclerosis, and protein casts"
same,Blood biochemistry: ALT and ALP activity,"[1]; 14 days after single injection, with increasing dose, n = 3",gradually decreased
same,Death / body weight in tumor-bearing mice,[2],cause death
same,Survival in metastasis model,[3],no mice survived up to day 14 (D14)
COc1cccc2c1C(=O)c1c(O)c3c(c(O)c1C2=O)C[C@@](O)(C(=O)CO)C[C@@H]3O[C@H]1C[C@H](NC(=O)CCC(=O)N2CCC[C@H]2C(=O)N[C@@H](CC(C)C)C(=O)NCC(=O)O)[C@H](O)[C@H](C)O1 [DOX‐P3],IC50 with extended incubation time,"[4]; MDA-MB-231, 36 and 48 h versus 24 h",further reduced
CC[C@H](C)[C@H](NC(=O)[C@@H]1CCCN1C(=O)[C@H](CC(N)=O)NC(=O)[C@H](CC(N)=O)NC(=O)[C@H](Cc1ccc(O)cc1)NC(=O)[C@H](Cc1c[nH]cn1)NC(=O)[C@H](CCCNC(=N)N)NC(=O)[C@@H](NC(=O)[C@H](CCCNC(=N)N)NC(=O)CNC(=O)CNC(=O)[C@H](CC(C)C)NC(=O)[C@@H]1CCCN1C(=O)CCC(=O)N[C@H]1C[C@H](O[C@H]2C[C@](O)(C(=O)CO)Cc3c(O)c4c(c(O)c32)C(=O)c2c(OC)cccc2C4=O)O[C@@H](C)[C@H]1O)C(C)C)C(=O)N[C@@H](Cc1c[nH]c2ccccc12)C(=O)N[C@@H](CCCNC(=N)N)C(=O)N[C@@H](CCC(N)=O)C(=O)N[C@@H](CCCNC(=N)N)C(=O)N[C@@H](Cc1ccc(O)cc1)C(N)=O [DOX‐P18R] ({Doxorubicin(3'-N)-Suc}-PLGGRVRHYNNPIWRQRY-NH2),"IC50 (cytotoxicity), in words",[5],particularly high IC50 values
same,"IC50 (cytotoxicity), in words","[4]; MDA-MB-231, 24 h",particularly high IC50 values
same,"IC50 (cytotoxicity), in words",[6],particularly high IC50 values
CC[C@H](C)[C@H](NC(=O)[C@@H]1CCCN1C(=O)[C@H](CC(N)=O)NC(=O)[C@H](CC(N)=O)NC(=O)[C@H](Cc1ccc(O)cc1)NC(=O)[C@H](Cc1c[nH]cn1)NC(=O)[C@H](CCCNC(=N)N)NC(=O)CNC(=O)[C@H](CCCNC(=N)N)NC(=O)[C@@H](N)C(C)C)C(=O)N[C@@H](Cc1c[nH]c2ccccc12)C(=O)N[C@@H](CCCNC(=N)N)C(=O)N[C@@H](CCC(N)=O)C(=O)N[C@@H](CCCNC(=N)N)C(=O)N[C@@H](Cc1ccc(O)cc1)C(N)=O [P15] (H-VRGRHYNNPIWRQRY-NH2),Morphology by TEM,[7],fibroid aggregations
